Laboratory results published in the Kinase Knowledgebase extract (Sharma et al. 2016).

Assays:
[1] = target: ROCK2 (human) (UniProt O75116); test: Assessment of ROCK2 Kinase Activity using IMAP Assay
[2] = target: ROCK2 (human) (UniProt O75116); test: Assessment of ROCK2 Kinase Activity using Luciferin-Luciferase Assay

Sequence of ROCK2 (human) (O75116 whole entry, looked up): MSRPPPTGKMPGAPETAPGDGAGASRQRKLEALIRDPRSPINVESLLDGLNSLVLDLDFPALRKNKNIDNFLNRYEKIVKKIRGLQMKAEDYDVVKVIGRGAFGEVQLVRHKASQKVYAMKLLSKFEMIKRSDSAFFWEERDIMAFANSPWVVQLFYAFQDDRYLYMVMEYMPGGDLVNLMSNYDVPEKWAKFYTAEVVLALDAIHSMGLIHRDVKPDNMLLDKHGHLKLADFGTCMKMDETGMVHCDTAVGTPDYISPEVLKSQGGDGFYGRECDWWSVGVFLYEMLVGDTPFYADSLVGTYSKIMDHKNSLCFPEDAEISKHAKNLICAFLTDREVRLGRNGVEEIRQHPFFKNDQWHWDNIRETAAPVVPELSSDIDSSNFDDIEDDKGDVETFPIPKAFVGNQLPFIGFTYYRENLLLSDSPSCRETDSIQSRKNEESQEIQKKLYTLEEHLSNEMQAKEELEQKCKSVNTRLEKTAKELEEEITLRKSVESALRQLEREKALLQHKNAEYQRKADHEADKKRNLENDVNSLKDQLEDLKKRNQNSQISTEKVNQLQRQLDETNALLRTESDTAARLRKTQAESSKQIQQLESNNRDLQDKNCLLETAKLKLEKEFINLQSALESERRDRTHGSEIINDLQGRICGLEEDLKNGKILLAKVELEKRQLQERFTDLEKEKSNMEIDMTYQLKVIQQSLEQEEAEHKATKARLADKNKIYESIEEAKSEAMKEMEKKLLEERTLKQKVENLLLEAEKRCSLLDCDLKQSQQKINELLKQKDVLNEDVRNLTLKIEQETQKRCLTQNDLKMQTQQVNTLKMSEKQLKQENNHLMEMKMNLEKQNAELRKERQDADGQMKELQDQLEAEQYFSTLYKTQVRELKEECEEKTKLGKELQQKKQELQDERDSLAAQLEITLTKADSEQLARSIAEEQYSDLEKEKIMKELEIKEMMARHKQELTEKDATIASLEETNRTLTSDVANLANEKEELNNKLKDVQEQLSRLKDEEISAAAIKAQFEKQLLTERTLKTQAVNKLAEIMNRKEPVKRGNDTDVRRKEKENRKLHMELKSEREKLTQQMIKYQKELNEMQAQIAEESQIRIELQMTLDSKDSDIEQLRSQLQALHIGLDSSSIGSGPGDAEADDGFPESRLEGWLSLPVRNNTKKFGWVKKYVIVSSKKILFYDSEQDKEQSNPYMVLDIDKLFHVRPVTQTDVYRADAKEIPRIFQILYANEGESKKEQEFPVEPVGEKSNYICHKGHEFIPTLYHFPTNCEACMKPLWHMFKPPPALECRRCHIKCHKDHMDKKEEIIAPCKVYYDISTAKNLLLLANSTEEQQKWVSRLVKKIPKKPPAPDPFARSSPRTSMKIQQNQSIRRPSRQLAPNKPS

Row | SMILES | IC50 [1] [nM] | IC50 [2] [nM]
1 | N#Cc1cccc(NC(=O)N2CCC[C@@H]2c2cccc(C(=O)Nc3nc4c(s3)C[C@@H](N3CCOCC3)CC4)c2)c1 | 0.6 | 
2 | COc1ccc(C(=O)N2CCC[C@@H]2c2cccc(C(=O)Nc3nc4c(s3)C[C@@H](N3CCOCC3)CC4)c2)cc1Cl | 7.9 | 5.8
3 | CN1CCc2nc(NC(=O)c3cccc([C@H]4CCCN4C(=O)c4nnn(-c5nonc5N)c4-c4ccccc4)c3)sc2C1 | 44 | 6
4 | CN1CCc2nc(NC(=O)c3cccc([C@H]4CCCN4C(=O)c4ccc(-n5ccnc5)cc4)c3)sc2C1 |  | 14.5
5 | CN1CCc2nc(NC(=O)c3cccc([C@H]4CCCN4C(=O)Nc4cccc(C(N)=O)c4)c3)sc2C1 |  | 94.6
6 | CN1CCc2nc(NC(=O)c3cccc([C@H]4CCCN4C(=O)c4ccc(-c5cnco5)cc4)c3)sc2C1 | 11.2 | 2.6
7 | N#CCCN[C@H]1CCc2nc(NC(=O)c3cccc(OCC(=O)Nc4ccc(C#N)cc4)c3)sc2C1 | 27 | 5.2
8 | COc1ccc(C(=O)N2CCC[C@@H]2c2cccc(C(=O)Nc3nc4c(s3)CN(C)CC4)c2)cc1C |  | 45.1
9 | CN1CCc2nc(NC(=O)c3cccc([C@H]4CCCN4C(=O)c4csc(-c5ccncc5)n4)c3)sc2C1 | 16 | 6.1
10 | Cc1nnnn1-c1ccc(C(=O)N2CCC[C@@H]2c2cccc(C(=O)Nc3nc4c(s3)CN(C)CC4)c2)cc1 |  | 91.4
11 | N#Cc1ccc(NC(=O)COc2cccc(C(=O)Nc3nc4c(s3)C[C@@H](NCCC(F)(F)F)CC4)c2)cc1 | 32 | 5.1
12 | CN1CCc2nc(NC(=O)c3cccc([C@H]4CCCN4C(=O)c4cc(-c5ccncc5)[nH]n4)c3)sc2C1 | 4.1 | 
13 | CN1CCc2nc(NC(=O)c3cccc([C@H]4CCCN4C(=O)c4cn5cc(C(N)=O)ccc5n4)c3)sc2C1 | 7.4 | 2.5
14 | N#Cc1cccc2c1CCN2C(=O)N1CCC[C@@H]1c1cccc(C(=O)Nc2nc3c(s2)C[C@@H](N2CCOCC2)CC3)c1 | 2.9 | 
15 | CN1CCc2nc(NC(=O)c3cccc([C@H]4CCCN4C(=O)c4ccc5cc(O)ccc5c4)c3)sc2C1 | 4 | 2.1
16 | COc1ccc(C(=O)N2CCC[C@@H]2c2cccc(C(=O)Nc3nc4c(s3)CN(C)CC4)c2)cc1Cl |  | 38
17 | CN1CCc2nc(NC(=O)c3cccc([C@H]4CCCN4C(=O)c4csc(-c5cccnc5)n4)c3)sc2C1 | 13 | 4
18 | COc1ccc(C(=O)N2CCC[C@@H]2c2cccc(C(=O)Nc3nc4c(s3)CN(C)CC4)c2)cc1OC |  | 30.7
19 | CN1CCc2nc(NC(=O)c3cccc([C@H]4CCCN4C(=O)c4cccc(-c5cccnc5)c4)c3)sc2C1 |  | 80.4
20 | CN1CCc2nc(NC(=O)c3cccc(OCC(=O)Nc4ccc(C#N)cc4)c3)sc2C1 |  | 23.4
